Patent US20230192772A1, “ANTIMICROBIAL PEPTIDES AND USES THEREOF” (SORBONNE UNIVERSITE, priority 2016, published 2023)

Key:
Test in all cases: MIC/MBC (Example 10, MH medium)
Type in all cases: cell-based
[1] = system: Escherichia coli ATCC 8739
Experimental: (§1) The MIC is determined using a growth inhibition test in liquid medium. The MIC is defined as being the lowest peptide concentration capable of inhibiting the bacterial strain tested, after incubation for 18 h at 37° C. The test was carried out in a sterile microtitration plate containing 96 wells. A series of increasing concentrations of each peptide (0.2 to 100 µM) was prepared beforehand in sterile MilliQ water. In each well, 10 µL of peptide was incubated with 90 µL of bacterial suspension (10^7 cfu/mL) in yeast extract-free LB medium. The microplate was incubated at 37° C. for 18 h. The bacterial growth was evaluated by measuring the OD at 620 nm using a plate reader.
(§2) The negative growth inhibition control was obtained by replacing the solution containing the peptide by sterile MilliQ water. The positive control suitable for completely inhibiting the growth of the bacterial strains was obtained by replacing the solution containing the peptide by 10 µL of formaldehyde.
(§3) The results are interpreted by calculating the percentage of bacterial growth in each well according to the formula:
(§4) %Growth = (OD well - OD of T0)/(OD of T100-OD of T0)*100 where
(§5) • OD of T100 = OD of growth control (bacterial suspension free from sample under test, 100% growth), • OD of T0 = OD of sterility control (culture medium + bacterium + 10 µL formaldehyde, 0% growth) and • OD well = OD of well for which it is sought to calculate the growth percentage (bacterial suspension + peptide under test).
(§6) The MBC is defined as being the minimum peptide concentration leaving no surviving bacteria of the inoculum after incubation at 37° C. for 24 hours. This test consists of smearing the contents of the well wherein the peptide has inhibited bacterial growth on a Petri dish (LB agar), followed by incubation for 24 h at 37° C.
(§7) A 10 mL preculture in Muller-Hinton (MH) medium is prepared by inoculating a colony of the bacterial strain of interest. The preculture is incubated at 37° C. under stirring overnight. The culture is subcultured to 1:100 under the same conditions. The culture concentration is evaluated by measuring the turbidity at 600 nm (OD600 nm 1.0 = 5 × 10^8 CFU/mL for E. coli (Gram-negative bacteria) and 1.5 × 10^8 CFU/mL for S. aureus (Gram-positive bacteria). Once the exponential growth phase (OD600 nm = 0.3 - 0.7) has been achieved, the cultures are diluted in MH medium so as to obtain 10^6 CFU/mL (final inoculum concentration).
(§8) The MIC and the MBC were determined as per the protocol described in part 2.1 of Example 2.

[2] = system: Enterococcus faecalis CIP A186; conditions: Table 4
Experimental: as §1, §2, §3, §4, §5, §6, §7, §8

[3] = system: Staphylococcus aureus MRSA; conditions: Table 4
Experimental: as §1, §2, §3, §4, §5, §6, §7, §8

[4] = system: Klebsiella pneumoniae CIP 52.211; conditions: Table 4
Experimental: as §1, §2, §3, §4, §5, §6, §7, §8

[5] = system: Yersinia ruckeri ATCC 29473; conditions: Table 4
Experimental: as §1, §2, §3, §4, §5, §6, §7, §8

[6] = system: Lactococcus garviae ATCC 43921; conditions: Table 4
Experimental: as §1, §2, §3, §4, §5, §6, §7, §8

[7] = system: Klebsiella oxytoca CIP 7932; conditions: Table 4
Experimental: as §1, §2, §3, §4, §5, §6, §7, §8

[8] = system: Escherichia coli K12; conditions: Table 4
Experimental: as §1, §2, §3, §4, §5, §6, §7, §8

[9] = system: Kocuria rhizophila ATCC 9341; conditions: Table 4
Experimental: as §1, §2, §3, §4, §5, §6, §7, §8

[10] = system: Salmonella enterica CIP 8297; conditions: Table 4
Experimental: as §1, §2, §3, §4, §5, §6, §7, §8

[11] = system: Pseudomonas aeruginosa ATCC 27853; conditions: Table 4
Experimental: as §1, §2, §3, §4, §5, §6, §7, §8

[12] = system: Vibrio parahemolyticus IFREMER 01/252; conditions: Table 4
Experimental: as §1, §2, §3, §4, §5, §6, §7, §8

[13] = system: Escherichia coli ML35p; conditions: Table 4
Experimental: as §1, §2, §3, §4, §5, §6, §7, §8

[14] = system: Enterococcus faecalis CIP 103015
Experimental: as §1, §2, §3, §4, §5, §6, §7, §8

[15] = system: Staphylococcus aureus ATCC 6538
Experimental: as §1, §2, §3, §4, §5, §6, §7, §8

[16] = system: Staphylococcus aureus ST 1065; conditions: Table 4
Experimental: as §1, §2, §3, §4, §5, §6, §7, §8

[17] = system: Escherichia coli P7 (ESBL); conditions: Table 4
Experimental: as §1, §2, §3, §4, §5, §6, §7, §8

[18] = system: Staphylococcus epidermidis BM 3302; conditions: Table 4
Experimental: as §1, §2, §3, §4, §5, §6, §7, §8

[19] = system: Pseudomonas aeruginosa ATCC 9027
Experimental: as §1, §2, §3, §4, §5, §6, §7, §8

[20] = system: Listeria monocytogenes SOR 100; conditions: Table 4
Experimental: as §1, §2, §3, §4, §5, §6, §7, §8

[21] = Table 4, Escherichia coli ATCC 8739
[22] = Table 4, Enterococcus faecalis CIP 103015
[23] = Table 5, E. faecalis CIP 103015
[24] = Table 4, Staphylococcus aureus ATCC 6538
[25] = Table 4, Pseudomonas aeruginosa ATCC 9027
[26] = Table 5, P. aeruginosa ATCC 9027

CC[C@H](C)[C@H](NC(=O)CN)C(=O)NCC(=O)N[C@@H](C)C(=O)N[C@H](C(=O)N[C@@H](CC(C)C)C(=O)N[C@@H](CCCCN)C(=O)N[C@H](C(=O)N[C@@H](CC(C)C)C(=O)N[C@H](C(=O)N[C@H](C(=O)NCC(=O)N[C@@H](CC(C)C)C(=O)N1CCC[C@H]1C(=O)N[C@@H](C)C(=O)N[C@@H](CC(C)C)C(=O)N[C@H](C(=O)N[C@@H](CO)C(=O)N[C@@H](Cc1c[nH]c2ccccc12)C(=O)N[C@H](C(=O)N[C@@H](CCCCN)C(=O)N[C@@H](CCCNC(=N)N)C(=O)N[C@@H](CCCCN)C(=O)N[C@@H](CCCNC(=N)N)C(=O)N[C@@H](CCC(N)=O)C(=O)N[C@@H](CCC(N)=O)C(N)=O)[C@@H](C)CC)[C@@H](C)CC)[C@@H](C)O)[C@@H](C)O)C(C)C)C(C)C [Melittin]
50 µM: MBC [7] | MIC [10] | MIC [11]
25 µM: MBC [6] | MIC [7]
10 µM: MBC [4] | MIC [4] | MBC [8] | MIC [8] | MBC [13] | MIC [13] | MBC [16] | MIC [16] | MBC [18] | MIC [18]
12.5 µM: MBC [2] | MIC [2] | MBC [3] | MBC [5]
1.25 µM: MBC [14, 22] | MIC [14, 22]
2.5 µM: MBC [1, 21] | MIC [1, 21] | MBC ([1]; Table 5, E. coli ATCC 8739) | MIC ([1]; Table 5, E. coli ATCC 8739)
> 50 µM: MBC [10] | MBC [11] | MBC [12] | MIC [12]
6.25 µM: MIC [3] | MIC [5] | MIC [6] | MBC [17] | MIC [17]
1.5 µM: MIC [20]
0.8 µM: MBC [9] | MIC [9]
1.2 µM: MBC [14, 23] | MIC [14, 23]
3.12 µM: MBC [20]
5 µM: MBC [15, 24] | MIC [15, 24] | MBC ([15]; Table 5, S. aureus ATCC 6538) | MIC ([15]; Table 5, S. aureus ATCC 6538) | MBC [19, 25] | MIC [19, 25] | MBC [19, 26] | MIC [19, 26]
